# Assay results taken from patent US9422289B2, “Use of pteridine derivatives for the treatment of increased intracranial pressure, secondary ischemia, and disorders associated with an increased level of cytotoxic reactive oxygen species” (VASOPHARM GMBH, priority 2003, dated 2016).
# Key:
# D2 (h) = D2 (h) (Homo sapiens, UniProt P14416); type: binding; settings: 10 µM
# M1 (h) = M1 (h) (Homo sapiens, UniProt P11229); type: binding; settings: 10 µM
# [1] = system: β-adrenoceptor -G protein coupling; type: cell-based; settings: 10 µM
# H2 = H2 (Cavia porcellus, UniProt P47747); type: binding; settings: 10 µM
# [2] = system: Ca^2+ channel (L, DHP site); type: binding; settings: 10 µM
# [3] = system: Protein kinase A (stimulated); assay: Cell biology assay, Cerep 706-2; type: cell-based; settings: 10 µM
# [4] = molecular target: T1, NOS inducible (whole cells/spectrophoto.) (Mus musculus, UniProt P29477); assay: Cell biology assay, Cerep 766-i1; type: cell-based; settings: 10 µM
# T1 construct: Cerep (assay catalogue, edition 2002) 766-i1
# T1 sequence (P29477 whole entry): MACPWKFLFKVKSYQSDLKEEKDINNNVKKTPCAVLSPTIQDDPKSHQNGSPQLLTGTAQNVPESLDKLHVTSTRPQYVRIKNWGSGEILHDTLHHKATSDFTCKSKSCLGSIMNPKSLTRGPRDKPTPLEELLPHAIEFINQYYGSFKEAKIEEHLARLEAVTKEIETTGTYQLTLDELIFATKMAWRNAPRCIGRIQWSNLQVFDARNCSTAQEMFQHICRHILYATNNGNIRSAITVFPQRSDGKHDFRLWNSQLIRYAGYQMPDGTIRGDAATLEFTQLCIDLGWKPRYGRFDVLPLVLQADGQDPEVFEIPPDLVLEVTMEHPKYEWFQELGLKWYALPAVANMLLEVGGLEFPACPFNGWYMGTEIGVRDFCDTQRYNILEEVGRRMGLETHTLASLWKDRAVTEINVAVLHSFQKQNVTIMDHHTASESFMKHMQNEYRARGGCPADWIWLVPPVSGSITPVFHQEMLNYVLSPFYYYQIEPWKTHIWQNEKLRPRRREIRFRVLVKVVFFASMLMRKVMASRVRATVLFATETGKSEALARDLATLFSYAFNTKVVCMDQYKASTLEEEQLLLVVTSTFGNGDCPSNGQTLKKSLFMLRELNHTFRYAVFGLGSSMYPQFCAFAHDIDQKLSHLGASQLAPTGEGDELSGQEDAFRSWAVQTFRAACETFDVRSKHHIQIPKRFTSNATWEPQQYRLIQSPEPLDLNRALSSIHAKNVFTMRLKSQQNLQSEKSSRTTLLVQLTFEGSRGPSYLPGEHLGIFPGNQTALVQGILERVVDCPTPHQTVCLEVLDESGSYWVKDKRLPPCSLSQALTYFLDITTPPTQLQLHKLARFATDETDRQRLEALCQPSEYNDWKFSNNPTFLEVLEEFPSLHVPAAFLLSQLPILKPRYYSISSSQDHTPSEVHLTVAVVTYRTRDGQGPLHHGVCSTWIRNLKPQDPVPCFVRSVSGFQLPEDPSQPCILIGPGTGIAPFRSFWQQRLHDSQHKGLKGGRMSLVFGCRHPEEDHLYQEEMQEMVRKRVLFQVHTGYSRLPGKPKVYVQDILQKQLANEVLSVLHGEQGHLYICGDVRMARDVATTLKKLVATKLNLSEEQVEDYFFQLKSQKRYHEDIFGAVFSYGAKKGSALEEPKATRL
# 5-HT1B = 5-HT1B (Rattus norvegicus, UniProt P28564); type: binding; settings: 10 µM
# Sequence of 5-HT1B (P28564 whole entry): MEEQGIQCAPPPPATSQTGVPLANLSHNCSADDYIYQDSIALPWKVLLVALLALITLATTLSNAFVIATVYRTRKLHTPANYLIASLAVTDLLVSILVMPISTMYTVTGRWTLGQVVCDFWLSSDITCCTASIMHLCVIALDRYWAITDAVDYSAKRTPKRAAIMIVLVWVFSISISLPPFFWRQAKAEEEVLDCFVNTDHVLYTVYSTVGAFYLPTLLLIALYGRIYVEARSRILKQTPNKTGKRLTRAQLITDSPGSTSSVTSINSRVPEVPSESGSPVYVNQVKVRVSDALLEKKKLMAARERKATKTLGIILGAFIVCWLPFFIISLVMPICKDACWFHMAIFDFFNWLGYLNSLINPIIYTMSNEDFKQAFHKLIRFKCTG
# H1 (central) = H1 (central) (Cavia porcellus, UniProt P31389); type: binding; settings: 10 µM
# Sequence of H1 (central) (P31389 whole entry): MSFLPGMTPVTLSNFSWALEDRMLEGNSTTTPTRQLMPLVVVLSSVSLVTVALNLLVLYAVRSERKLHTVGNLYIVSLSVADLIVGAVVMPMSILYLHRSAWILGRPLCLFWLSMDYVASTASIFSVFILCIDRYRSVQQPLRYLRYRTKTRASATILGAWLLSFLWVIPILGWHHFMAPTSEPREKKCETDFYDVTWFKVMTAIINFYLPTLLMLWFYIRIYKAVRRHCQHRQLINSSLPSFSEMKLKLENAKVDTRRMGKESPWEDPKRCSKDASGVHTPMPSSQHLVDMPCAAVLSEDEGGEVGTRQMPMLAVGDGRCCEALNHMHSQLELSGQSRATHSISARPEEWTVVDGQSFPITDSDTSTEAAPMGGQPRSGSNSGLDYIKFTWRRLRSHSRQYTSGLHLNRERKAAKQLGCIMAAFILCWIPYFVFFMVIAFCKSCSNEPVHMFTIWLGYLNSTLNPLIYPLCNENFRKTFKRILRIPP
# Na^+/K^+ ATPase (pump) = assay: Cell biology assay, Cerep 734; type: cell-based; settings: 10 µM
# D1 (h) = D1 (h) (Homo sapiens, UniProt P21728); type: binding; settings: 10 µM
# α2 (non-selective) = assay: Radioligand binding, Cerep 802-1b; settings: 10 µM
# ATPase (Na^+/K^+) = assay: Cell biology assay, Cerep 760; type: biochemical; settings: 10 µM
# [5] = system: L-type Ca^2+ channel (stimulated); assay: Cell biology assay, Cerep 740-1; type: cell-based; settings: 10 µM
# 5-HT uptake = 5-HT uptake (Rattus norvegicus, UniProt P31652); type: cell-based; settings: 10 µM
# GABAA = assay: Radioligand binding, Cerep 804-1; settings: 10 µM
# [6] = molecular target: Phosphodiesterase III (h) (Homo sapiens, UniProt Q14432); assay: Cell biology assay, Cerep 752-ch; type: biochemical; settings: 10 µM
# EGF (h) = EGF (h) (Homo sapiens, UniProt P00533); assay: Radioligand binding, Cerep […]; settings: 10 µM
# α1 (non-selective) = assay: Radioligand binding, Cerep 802-1a; settings: 10 µM
# PDGF = assay: Radioligand binding, Cerep 881; settings: 10 µM
# [7] = system: isolated rat basilar arteries (BA); assay: Contractile action in isolated rat basilar arteries
# Vitamin D3 (h) = molecular target: T2, Vitamin D3 (h) (Homo sapiens, UniProt P11473); type: binding; settings: 10 µM
# T2 construct: Cerep (assay catalogue, edition 2002) 848-h
# T2 sequence (P11473 whole entry): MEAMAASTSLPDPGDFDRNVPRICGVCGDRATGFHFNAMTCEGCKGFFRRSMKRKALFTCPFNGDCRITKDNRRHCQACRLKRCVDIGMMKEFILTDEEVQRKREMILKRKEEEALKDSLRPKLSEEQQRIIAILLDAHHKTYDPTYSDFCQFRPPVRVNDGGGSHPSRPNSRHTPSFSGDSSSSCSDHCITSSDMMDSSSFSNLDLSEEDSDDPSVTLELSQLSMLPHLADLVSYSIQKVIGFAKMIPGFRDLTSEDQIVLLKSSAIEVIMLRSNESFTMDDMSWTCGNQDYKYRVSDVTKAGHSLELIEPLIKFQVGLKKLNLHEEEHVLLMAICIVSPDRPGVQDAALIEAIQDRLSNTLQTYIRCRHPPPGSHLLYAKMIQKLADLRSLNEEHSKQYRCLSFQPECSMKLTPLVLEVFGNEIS
# Phosphodiesterase V (h) = molecular target: T3, Phosphodiesterase V (h) (Homo sapiens, UniProt O76074); type: biochemical; settings: 10 µM
# T3 construct: Cerep (assay catalogue, edition 2002) 752-e
# AT2 (h) = AT2 (h) (Homo sapiens, UniProt P50052); type: binding; settings: 10 µM
# PAF = PAF (Oryctolagus cuniculus, UniProt G1TEI7); assay: Radioligand binding, Cerep 830; settings: 10 µM
# 5-HT1D = assay: Radioligand binding, Cerep 808-1d; settings: 10 µM
# β1 (h) = β1 (h) (Homo sapiens, UniProt P08588); type: binding; settings: 10 µM
# β2 (h) = β2 (h) (Homo sapiens, UniProt P07550); type: binding; settings: 10 µM
# [8] = system: Na^+ channel (h) (stimulated); assay: Cell biology assay, Cerep 739-1; type: cell-based, human; settings: 10 µM
# [9] = system: Cell proliferation (PDGF-stimulated Balb/c 3T3); assay: Cell biology assay, Cerep 791-3; type: cell-based; settings: 10 µM
# K^+V channel = assay: Radioligand binding, Cerep 863-2; settings: 10 µM
# 5-HT2A (h) = molecular target: T4, 5-HT2A (h) (Homo sapiens, UniProt P28223); assay: Radioligand binding, Cerep 808-2h; settings: 10 µM
# T4 construct: Cerep (assay catalogue, edition 2002) 808-2h
# AT1 (h) = AT1 (h) (Homo sapiens, UniProt P30556); assay: Radioligand binding, Cerep 821-1h; settings: 10 µM
# AMPA = assay: Radioligand binding, Cerep 895-1; settings: 10 µM
# GABA (non-selective) = type: binding; settings: 10 µM
# NE uptake = NE uptake (Rattus norvegicus, UniProt Q63380); type: cell-based; settings: 10 µM
# Sequence of NE uptake (Q63380 entry or part of it): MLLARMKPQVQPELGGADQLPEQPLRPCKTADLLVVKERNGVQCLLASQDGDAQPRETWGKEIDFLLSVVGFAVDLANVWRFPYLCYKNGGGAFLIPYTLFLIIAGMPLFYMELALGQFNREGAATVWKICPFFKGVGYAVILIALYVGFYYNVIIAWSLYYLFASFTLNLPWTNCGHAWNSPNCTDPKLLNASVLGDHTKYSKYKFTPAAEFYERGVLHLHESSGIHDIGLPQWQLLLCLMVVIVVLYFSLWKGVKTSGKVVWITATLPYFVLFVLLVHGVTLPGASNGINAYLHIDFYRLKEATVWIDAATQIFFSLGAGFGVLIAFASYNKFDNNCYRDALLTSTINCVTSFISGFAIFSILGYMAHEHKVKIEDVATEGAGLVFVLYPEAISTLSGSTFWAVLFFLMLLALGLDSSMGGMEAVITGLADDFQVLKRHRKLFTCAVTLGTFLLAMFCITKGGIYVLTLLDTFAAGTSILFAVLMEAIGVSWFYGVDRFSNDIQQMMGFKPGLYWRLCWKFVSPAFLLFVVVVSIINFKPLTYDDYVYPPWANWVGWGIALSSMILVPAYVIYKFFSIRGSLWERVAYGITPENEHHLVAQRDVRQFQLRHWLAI
# [10] = system: Ca^2+ channel (L, verapamil site); assay: Radioligand binding, Cerep 861-L3; settings: 10 µM
# SK^+Ca channel = assay: Radioligand binding, Cerep 863-3; settings: 10 µM
# IP3 = assay: Radioligand binding, Cerep 861-5; settings: 10 µM
# M2 (h) = M2 (h) (Homo sapiens, UniProt P08172); type: binding; settings: 10 µM
# ETA (h) = ETA (h) (Homo sapiens, UniProt P25101); type: binding; settings: 10 µM
# Sequence of ETA (h) (P25101 21-427): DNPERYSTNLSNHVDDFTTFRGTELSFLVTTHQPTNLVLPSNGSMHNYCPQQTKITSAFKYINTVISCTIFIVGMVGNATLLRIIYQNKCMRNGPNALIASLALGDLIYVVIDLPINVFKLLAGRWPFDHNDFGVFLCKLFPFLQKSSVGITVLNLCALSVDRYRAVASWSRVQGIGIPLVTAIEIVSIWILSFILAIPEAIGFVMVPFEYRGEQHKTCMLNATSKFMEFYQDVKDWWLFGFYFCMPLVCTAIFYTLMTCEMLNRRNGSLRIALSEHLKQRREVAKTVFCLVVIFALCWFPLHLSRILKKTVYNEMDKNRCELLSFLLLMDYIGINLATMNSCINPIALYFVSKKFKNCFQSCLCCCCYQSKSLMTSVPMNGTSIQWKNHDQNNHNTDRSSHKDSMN
# [11] = molecular target: T5, NOS constitutive (h) (endothelial) (Homo sapiens, UniProt P29474); type: biochemical; settings: 10 µM
# T5 construct: Cerep (assay catalogue, edition 2002) 766-c
# Kainate = assay: Radioligand binding, Cerep 895-2; settings: 10 µM
# Estrogen (ER) = assay: Radioligand binding, Cerep 813; settings: 10 µM
# Ca^2+-ATPase (pump) = assay: Cell biology assay, Cerep 735; type: cell-based; settings: 10 µM
# ETB (h) = ETB (h) (Homo sapiens, UniProt P24530); assay: Radioligand binding, Cerep 825-2h; settings: 10 µM
# Sequence of ETB (h) (P24530 27-442): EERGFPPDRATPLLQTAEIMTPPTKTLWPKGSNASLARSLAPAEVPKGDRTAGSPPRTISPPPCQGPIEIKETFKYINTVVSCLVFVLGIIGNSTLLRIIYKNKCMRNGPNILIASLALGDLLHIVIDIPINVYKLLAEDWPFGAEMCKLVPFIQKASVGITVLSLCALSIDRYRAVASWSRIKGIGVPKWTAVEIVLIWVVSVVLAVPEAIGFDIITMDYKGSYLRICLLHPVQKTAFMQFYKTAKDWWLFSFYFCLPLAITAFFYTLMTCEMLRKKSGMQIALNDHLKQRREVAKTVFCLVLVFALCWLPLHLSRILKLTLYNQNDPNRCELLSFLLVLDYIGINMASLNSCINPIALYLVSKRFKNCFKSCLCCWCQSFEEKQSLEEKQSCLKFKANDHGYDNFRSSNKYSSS
# DA uptake = DA uptake (Rattus norvegicus, UniProt P23977); type: cell-based; settings: 10 µM
# Sequence of DA uptake (P23977 whole entry): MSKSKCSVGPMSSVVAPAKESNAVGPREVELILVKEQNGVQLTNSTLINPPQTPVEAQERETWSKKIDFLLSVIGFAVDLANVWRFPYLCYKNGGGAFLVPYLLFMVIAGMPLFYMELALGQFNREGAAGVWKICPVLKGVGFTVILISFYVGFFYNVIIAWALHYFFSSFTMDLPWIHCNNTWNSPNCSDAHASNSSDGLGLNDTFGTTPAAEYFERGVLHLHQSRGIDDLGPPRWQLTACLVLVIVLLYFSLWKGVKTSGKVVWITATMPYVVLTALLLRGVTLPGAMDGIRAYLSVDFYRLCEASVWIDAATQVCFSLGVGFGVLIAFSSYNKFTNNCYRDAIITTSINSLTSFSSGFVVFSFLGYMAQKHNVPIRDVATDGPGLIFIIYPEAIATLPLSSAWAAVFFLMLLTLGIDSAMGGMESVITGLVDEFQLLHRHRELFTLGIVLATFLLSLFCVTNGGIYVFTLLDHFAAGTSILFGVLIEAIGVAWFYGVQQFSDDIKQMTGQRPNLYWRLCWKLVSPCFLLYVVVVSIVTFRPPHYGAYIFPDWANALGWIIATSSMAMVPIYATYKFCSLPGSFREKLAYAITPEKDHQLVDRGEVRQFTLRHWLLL
# [12] = system: Cell proliferation (h) (EGF-stimulated A-431); assay: cells; type: cell-based, human; settings: 10 µM
# NMDA = assay: Radioligand binding, Cerep 895-3; settings: 10 µM
# 5-HT2B (h) = molecular target: T6, 5-HT2B (h) (Homo sapiens, UniProt P41595); type: binding; settings: 10 µM
# T6 construct: Cerep (assay catalogue, edition 2002) 808-2bh
# K^+ATP channel = K^+ATP channel (Rattus norvegicus, UniProt Q09429); assay: Radioligand binding, Cerep 863-1; settings: 10 µM
# [13] = system: Ca^2+ channel (L, diltiazem site); type: binding; settings: 10 µM
# [14] = system: β-adrenoceptor - G protein coupling; type: cell-based
# M3 (h) = M3 (h) (Homo sapiens, UniProt P20309); assay: Radioligand binding, Cerep 806-3h; settings: 10 µM
# Acetylcholinesterase (h) = Acetylcholinesterase (h) (Homo sapiens, UniProt P22303); type: biochemical; settings: 10 µM
# [15] = system: isolated rat middle cerebral arteries (MCA); assay: Contractile action in isolated rat middle cerebral arteries
# GABAB = GABAB (Rattus norvegicus, UniProt Q9Z0U4); type: binding; settings: 10 µM
# Sequence of M1 (h) (P11229 whole entry): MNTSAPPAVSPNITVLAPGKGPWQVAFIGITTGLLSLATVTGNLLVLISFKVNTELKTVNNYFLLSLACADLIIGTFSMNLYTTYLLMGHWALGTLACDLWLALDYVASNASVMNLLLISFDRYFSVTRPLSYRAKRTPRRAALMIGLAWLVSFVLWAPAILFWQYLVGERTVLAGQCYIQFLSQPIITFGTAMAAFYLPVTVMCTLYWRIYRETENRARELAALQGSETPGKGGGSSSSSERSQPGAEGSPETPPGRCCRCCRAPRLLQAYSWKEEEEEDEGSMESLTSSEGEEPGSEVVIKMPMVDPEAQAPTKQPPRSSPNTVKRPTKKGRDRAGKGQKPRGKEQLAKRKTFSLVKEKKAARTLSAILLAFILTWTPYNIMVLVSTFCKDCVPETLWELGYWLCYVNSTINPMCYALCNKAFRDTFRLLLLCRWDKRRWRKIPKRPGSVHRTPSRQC
smiles,measurement,setting,value
"CC(O)C(O)C1CNc2nc(N)nc(N)c2N1 [H4-aminobiopterin, 2,4-diamino-5,6,7,8-tetrahydro-6-(L-erythro-1,2-dihydroxypropyl)-pteridine]",percent inhibition of control specific binding,D2 (h),— (key: The symbol — indicates an inhibition of less than 10%.)
same,percent inhibition of control specific binding,M1 (h),— (key: The symbol — indicates an inhibition of less than 10%.)
same,percent of inhibition of control activity,[1],31%
same,percent inhibition of control specific binding,H2,— (key: The symbol — indicates an inhibition of less than 10%.)
same,percent inhibition of control specific binding,[2],— (key: The symbol — indicates an inhibition of less than 10%.)
same,percent inhibition of control activity,[3],— (key: The symbol — indicates an inhibition of less than 10%.)
same,percent inhibition of control activity,[4],— (key: The symbol — indicates an inhibition of less than 10%.)
same,percent inhibition of control specific binding,5-HT1B,— (key: The symbol — indicates an inhibition of less than 10%.)
same,percent inhibition of control specific binding,H1 (central),— (key: The symbol — indicates an inhibition of less than 10%.)
same,percent inhibition of control activity,Na^+/K^+ ATPase (pump),— (key: The symbol — indicates an inhibition of less than 10%.)
same,percent inhibition of control specific binding,D1 (h),— (key: The symbol — indicates an inhibition of less than 10%.)
same,percent inhibition of control specific binding,α2 (non-selective),— (key: The symbol — indicates an inhibition of less than 10%.)
same,percent inhibition of control activity,ATPase (Na^+/K^+),— (key: The symbol — indicates an inhibition of less than 10%.)
same,percent inhibition of control activity,[5],— (key: The symbol — indicates an inhibition of less than 10%.)
same,percent inhibition of control activity,5-HT uptake,— (key: The symbol — indicates an inhibition of less than 10%.)
same,percent inhibition of control specific binding,GABAA,— (key: The symbol — indicates an inhibition of less than 10%.)
same,percent inhibition of control activity,[6],— (key: The symbol — indicates an inhibition of less than 10%.)
same,percent inhibition of control specific binding,EGF (h),10%
same,percent inhibition of control specific binding,α1 (non-selective),— (key: The symbol — indicates an inhibition of less than 10%.)
same,percent inhibition of control specific binding,PDGF,— (key: The symbol — indicates an inhibition of less than 10%.)
same,contraction relative to contraction caused by 124 mM K^+-Krebs solution,[7],clear concentration dependent contraction
same,percent inhibition of control specific binding,Vitamin D3 (h),— (key: The symbol — indicates an inhibition of less than 10%.)
same,percent inhibition of control activity,Phosphodiesterase V (h),— (key: The symbol — indicates an inhibition of less than 10%.)
same,percent inhibition of control specific binding,AT2 (h),16%
same,percent inhibition of control specific binding,PAF,— (key: The symbol — indicates an inhibition of less than 10%.)
same,percent inhibition of control specific binding,5-HT1D,— (key: The symbol — indicates an inhibition of less than 10%.)
same,percent inhibition of control specific binding,β1 (h),— (key: The symbol — indicates an inhibition of less than 10%.)
same,percent inhibition of control specific binding,β2 (h),— (key: The symbol — indicates an inhibition of less than 10%.)
same,percent inhibition of control activity,[8],12%
same,percent inhibition of control activity,[9],— (key: The symbol — indicates an inhibition of less than 10%.)
same,percent inhibition of control specific binding,K^+V channel,— (key: The symbol — indicates an inhibition of less than 10%.)
same,percent inhibition of control specific binding,5-HT2A (h),— (key: The symbol — indicates an inhibition of less than 10%.)
same,percent inhibition of control specific binding,AT1 (h),— (key: The symbol — indicates an inhibition of less than 10%.)
same,percent inhibition of control specific binding,AMPA,— (key: The symbol — indicates an inhibition of less than 10%.)
same,percent inhibition of control specific binding,GABA (non-selective),— (key: The symbol — indicates an inhibition of less than 10%.)
same,percent inhibition of control activity,NE uptake,— (key: The symbol — indicates an inhibition of less than 10%.)
same,percent inhibition of control specific binding,[10],— (key: The symbol — indicates an inhibition of less than 10%.)
same,percent inhibition of control specific binding,SK^+Ca channel,— (key: The symbol — indicates an inhibition of less than 10%.)
same,percent inhibition of control specific binding,IP3,— (key: The symbol — indicates an inhibition of less than 10%.)
same,percent inhibition of control specific binding,M2 (h),— (key: The symbol — indicates an inhibition of less than 10%.)
same,percent inhibition of control specific binding,ETA (h),— (key: The symbol — indicates an inhibition of less than 10%.)
same,percent inhibition of control activity,[11],76%
same,percent inhibition of control specific binding,Kainate,— (key: The symbol — indicates an inhibition of less than 10%.)
same,percent inhibition of control specific binding,Estrogen (ER),— (key: The symbol — indicates an inhibition of less than 10%.)
same,percent inhibition of control activity,Ca^2+-ATPase (pump),— (key: The symbol — indicates an inhibition of less than 10%.)
same,percent inhibition of control specific binding,ETB (h),— (key: The symbol — indicates an inhibition of less than 10%.)
same,percent inhibition of control activity,DA uptake,— (key: The symbol — indicates an inhibition of less than 10%.)
same,percent inhibition of control activity,[12],23%
same,percent inhibition of control specific binding,NMDA,— (key: The symbol — indicates an inhibition of less than 10%.)
same,percent inhibition of control specific binding,5-HT2B (h),— (key: The symbol — indicates an inhibition of less than 10%.)
same,percent inhibition of control specific binding,K^+ATP channel,— (key: The symbol — indicates an inhibition of less than 10%.)
same,percent inhibition of control specific binding,[13],— (key: The symbol — indicates an inhibition of less than 10%.)
same,stimulation of control activity,[14],11
same,percent inhibition of control specific binding,M3 (h),10%
same,percent inhibition of control activity,Acetylcholinesterase (h),— (key: The symbol — indicates an inhibition of less than 10%.)
same,contraction relative to contraction caused by 124 mM K^+-Krebs solution,[15],clear concentration dependent contraction
same,percent inhibition of control specific binding,GABAB,— (key: The symbol — indicates an inhibition of less than 10%.)
